Data set [1] has as its system MM1.S. Briefly: Cytotoxicity in human MM1S cells incubated for 48 hrs by MTT assay. It is filed as functional, cell-based. On the technique in general: Formazan colour is commonly taken as a measure of viable cells.
The target in data set [2] is DEPTOR/mTOR (Homo sapiens) (UniProt P42345+Q8TB45). In words: Inhibition of DEPTOR-mTOR interaction (unknown origin) by yeast-2-hybrid screen based assay. It is filed as protein assay.
A short description of data set [3]: Toxicity in normal hematopoietic colony forming cells (unknown origin) assessed as reduction in colony formation at 10 uM.
Data set [4] has as its target T1, DEP domain-containing mTOR-interacting protein (Homo sapiens, UniProt Q8TB45). In words: Inhibition of DEPTOR in human RPMI8226 cells assessed as increase in mTOR kinase activity by measuring induction of p70 phosphorylation incubated for 6 hrs by Western blot analysis. It is filed as cell-based. (Immunoblotting shows a protein as a band on a membrane.)
The subject of data set [5] is RPMI-8226. In words: Induction of apoptosis in human RPMI8226 cells at 0.12 to 2 uM by flow cytometry. It is filed as functional, cell-based.
A short description of data set [6]: Therapeutic index, ratio of IC50 for cytotoxicity against human PBL cells incubated for 48 hrs by MTT assay to IC50 for cytotoxicity against human MM1S cells incubated for 48 hrs by MTT assay. It is filed as toxicity, cell-based. The note with it: PBL cells versus MM1S cells, read-out: Ratio IC50.
Data set [7] addresses T1, DEP domain-containing mTOR-interacting protein. Briefly: Inhibition of DEPTOR in human RPMI8226 cells assessed as induction of mTORC1 activation at 1 uM incubated for 6 hrs co-immunoprecipitation assay. It is filed as cell-based.
Data set [8] has the same target. Briefly: Inhibition of DEPTOR in human RPMI8226 cells assessed as induction of mTORC1 activation at 0.5 uM incubated for 6 hrs co-immunoprecipitation assay. It is filed as cell-based.
The subject of data set [9] is OPM-2. In words: Cytotoxicity in human OPM2 cells incubated for 48 hrs by MTT assay. It is filed as functional, cell-based. To be noted: OPM-2, 48 h.
Data set [10] concerns OPM-2. Briefly: Induction of apoptosis in human OPM2 cells at 0.12 to 2 uM incubated for 48 hrs incubated for 48 hrs by flow cytometry. It is filed as functional, cell-based. A general note: In flow cytometry, cells or beads pass a laser one at a time.
A further data set deals with NCI-H929. Briefly: Induction of apoptosis in human NCI-H929 cells at 0.12 to 2 uM incubated for 48 hrs by flow cytometry. It is filed as functional, cell-based.
In data set [11] the test system is RPMI-8226. Briefly: Antitumor activity against human RPMI8226 cells xenografted in mouse assessed as reduction in tumor volume at 20 mg/kg, ip dosed daily for 4 days. It is filed as functional, organism-based.
For data set [12], the target named is T1, DEP domain-containing mTOR-interacting protein. In words: Inhibition of DEPTOR in human RPMI8226 cells assessed as increase in mTOR kinase activity by measuring induction of p21 expression at 0.25 to 1 uM uM by Western blot analysis. It is filed as cell-based.
The subject of data set [13] is MM1.S. Briefly: Cytotoxicity in human MM1S cells at 0.25 to 2 uM incubated for 48 hrs in presence of RAPTOR siRNA by MTT assay. It is filed as functional, cell-based.
Data set [14] deals with T1, DEP domain-containing mTOR-interacting protein. In words: Induction of proteasome-dependent DEPTOR degradation in human RPMI8226 cells at 0.5 to 2 uM. It is filed as cell-based.
The subject of data set [15] is RPMI-8226. In words: Cytotoxicity in human RPMI8226 cells transfected with DEPTOR at 0.25 to 1 uM incubated for 48 hrs by MTT assay. It is filed as functional, cell-based.
Data set [16] concerns RPMI-8226. In words: Induction of apoptosis in human RPMI8226 cells transfected with DEPTOR at 0.12 to 1 uM by flow cytometry. It is filed as functional, cell-based.
The subject of data set [17] is RPMI-8226. In words: Toxicity in human RPMI8226 cells xenografted in mouse assessed as effect on normal WBC counts at 20 mg/kg, ip dosed daily for 4 days. It is filed as organism-based. The note with it: in vivo, 96 h.
The test system of data set [18] is RPMI-8226. Briefly: Toxicity in human RPMI8226 cells xenografted in mouse assessed as effect on hematocrit at 20 mg/kg, ip dosed daily for 4 days. It is filed as organism-based. To be noted: in vivo, 96 h.
Data set [19] has as its system RPMI-8226. Briefly: Toxicity in human RPMI8226 cells xenografted in mouse assessed as effect on hemoglobin concentration at 20 mg/kg, ip dosed daily for 4 days. To be noted: in vivo, 96 h. It is filed as organism-based.
In data set [20] the test system is RPMI-8226. Briefly: Toxicity in human RPMI8226 cells xenografted in mouse assessed as effect on platelet count at 20 mg/kg, ip dosed daily for 4 days. It is filed as organism-based. The note with it: in vivo, 96 h.
Data set [21] deals with T1, DEP domain-containing mTOR-interacting protein. In words: Inhibition of DEPTOR in human RPMI8226 cells assessed as increase in mTOR kinase activity by measuring induction of p21 expression at 0.5 to 2 uM uM by Western blot analysis. It is filed as cell-based.
A short description of data set [22]: Toxicity in normal hematopoietic colony forming cells (unknown origin) assessed as reduction in colony formation at 0.5 uM.
Data set [23] deals with MM1.S. In words: Cytotoxicity in human MM1S cells at 0.12 to 1 uM incubated for 48 hrs in presence of RAPTOR siRNA by MTT assay. It is filed as functional, cell-based.
In data set [24] the test system is RPMI-8226. In words: Induction of p70 degradation in human RPMI8226 cells at 1 to 2 uM incubated for 6 hrs by Western blot analysis. It is filed as cell-based. The note with it: rpmi-8226, 6 h.
The test system of data set [25] is RPMI-8226. In words: Toxicity in human RPMI8226 cells at 1 to 2 uM incubated for 6 hrs. It is filed as cell-based. The note with it: rpmi-8226, 6 h.
For data set [26], the system named is RPMI-8226. In words: Toxicity in human RPMI8226 cells at 0.5 uM incubated for 6 hrs. It is filed as cell-based. The note with it: rpmi-8226, 6 h.
Data set [27] relates to RPMI-8226. In words: Toxicity in human RPMI8226 cells at 0.05 to 0.2 uM incubated for 6 hrs. It is filed as cell-based. To be noted: rpmi-8226, 6 h.

The source made the active and inactive calls. The calls are words filed in the database; no cut-off is given here.

What is called IC50 is the concentration that inhibits the measured activity by half.

T1 sequence (Q8TB45 whole entry, the tested form may be a part): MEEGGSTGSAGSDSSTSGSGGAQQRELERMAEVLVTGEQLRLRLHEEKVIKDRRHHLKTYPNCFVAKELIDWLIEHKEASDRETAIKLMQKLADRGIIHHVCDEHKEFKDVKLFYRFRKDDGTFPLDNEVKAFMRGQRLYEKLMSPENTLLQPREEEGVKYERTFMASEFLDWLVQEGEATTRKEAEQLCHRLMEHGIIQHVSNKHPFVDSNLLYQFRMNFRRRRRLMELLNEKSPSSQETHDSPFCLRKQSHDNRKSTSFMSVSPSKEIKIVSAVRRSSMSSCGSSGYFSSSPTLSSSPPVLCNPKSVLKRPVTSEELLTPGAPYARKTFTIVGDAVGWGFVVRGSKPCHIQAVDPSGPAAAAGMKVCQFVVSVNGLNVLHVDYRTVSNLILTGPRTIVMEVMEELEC
Sequence of DEPTOR/mTOR (Homo sapiens) (Q8TB45 whole entry, looked up, other chains not shown): as the sequence (Q8TB45 whole entry, the tested form may be a part) above

In turn, `Fc1cccc(NN=C2c3ccccc3-c3ccccc32)c1` came in with an IC50 in the data set with MM1.S [1] greater than 5000 nM.

Turning to `NN=C1C(Cl)=C(Cl)C(Cl)=C1Cl`, the “inhibition activity call (active/inactive)” value in data set [2] is “Active”. For the same compound, the Activity result in data set [3] was “Toxic”. Also, the IC50 in data set [4] is 1.3 µM; with MM1.S [1] it was 3000 to 3300 nM; with OPM-2 [9], 4000 nM. Further, the result in the data set on RPMI-8226 [5], in the data set on OPM-2 [10], in the data set with NCI-H929 and in the data set on RPMI-8226 [11] was Active. The selectivity ratio at 48 h in data set [6] was 14.3. Moreover, the inhibition entry in data set [7] is “Active”. Further, the “mTORC1 activation (active/not active)” value in data set [8] was “inactive”.

For the compound `FC(F)(F)c1cccc(NN=C2C(Cl)=C(Cl)C(Cl)=C2Cl)c1`, in data set [12], the inhibition entry is “Active”. Further, the outcome (with RPMI-8226 [5]; with OPM-2 [10]; in the data set on NCI-H929; in [14]; in the data set on RPMI-8226 [11]) was Active. Besides, the selectivity ratio at 48 h in data set [6] turned out to be 136. The “mTORC1 activation (active/not active)” value in [8] is “Active”. The result in the data set on MM1.S [13], in the data set with RPMI-8226 [15] and with RPMI-8226 [16] was inactive. In the data set with OPM-2 [9], this compound had a concentration for half-maximal inhibition (IC50) of 300 nM. For the same compound, the Activity entry in the data set with RPMI-8226 [17] is “Toxic”; in the data set with RPMI-8226 [18], “Non-Toxic”; in the data set with RPMI-8226 [19], “Non-Toxic”; in the data set on RPMI-8226 [20] it was “Non-Toxic”.

In the data set on MM1.S [1], `CC(C)(C)OC(=O)NN=C1c2ccccc2-c2ccccc21` displayed an IC50 greater than 5000 nM.

`COc1cccc(NN=C2C(Cl)=C(Cl)C(Cl)=C2Cl)c1` came in with a half-maximal inhibitory concentration (IC50) with MM1.S [1] greater than 3000 nM.

Take `O=C(O)c1ccc2c(c1)CCC2`: in [2], the “inhibition activity call (active/inactive)” value is “Active”.

Regarding `ClC1=C(Cl)C(Cl)=C(Cl)C1=NNC1CCCCC1`, the IC50 is greater than 5 µM in data set [4] and greater than 3000 nM in the data set with MM1.S [1].

Regarding `O=C(c1ccc(F)cc1)N(N=C1C(Cl)=C(Cl)C(Cl)=C1Cl)C(=O)c1ccc(F)cc1`, in [21], the inhibition entry was “Active”. The outcome in the data set on RPMI-8226 [5] was Active. For the same compound, in data set [6], the selectivity ratio at 48 h was 10.

Consider `CCCCCCCCNS(=O)(=O)c1ccccc1`, for which, in [2], the “inhibition activity call (active/inactive)” value is “Active”.

On to `Cc1cccc(NN=C2C(Cl)=C(Cl)C(Cl)=C2Cl)c1`, for which, in the data set on MM1.S [1], the IC50 is greater than 3000 nM.

As for `CN(C)c1ccc(/C=C2\C=Cc3ccccc32)cc1F`, in data set [2], the “inhibition activity call (active/inactive)” value was “Active”. For the same compound, the Activity entry in data set [22] is “Toxic”.

`NN=c1c2ccccc2oc2ccccc12`: in the data set on MM1.S [1], the 50% inhibitory concentration (IC50) was greater than 5000 nM.

In turn, `CN(C)N=C1C(Cl)=C(Cl)C(Cl)=C1Cl` showed an IC50 in the data set on MM1.S [1] greater than 3000 nM.

For the compound `CC(C)(C)C(=O)NN=C1C(Cl)=C(Cl)C(Cl)=C1Cl`, the inhibition entry in data set [12] was “Active”. Besides, the outcome in the data set with RPMI-8226 [5] was Active. Also, the selectivity ratio at 48 h in [6] was found to be 14.

For the compound `Fc1ccc(NN=C2C(Cl)=C(Cl)C(Cl)=C2Cl)cc1`, in data set [21], the inhibition result is “Active”. For the same compound, in data set [6], the selectivity ratio at 48 h is 33. Moreover, in data set [8], the “mTORC1 activation (active/not active)” value is “inactive”. Also, the outcome in the data set with MM1.S [23] was inactive.

For the compound `NN=C(c1ccccc1)c1ccccc1`, the IC50 with MM1.S [1] was greater than 5000 nM.

As to `Fc1ccccc1NN=C1C(Cl)=C(Cl)C(Cl)=C1Cl`, in the data set on MM1.S [1], the IC50 was greater than 3000 nM.

As to `O=C(NN=C1C(Cl)=C(Cl)C(Cl)=C1Cl)c1ccccc1`, the Activity entry with RPMI-8226 [24] was “Toxic”; in the data set on RPMI-8226 [25], “Toxic”; in the data set on RPMI-8226 [26], “Toxic”; in the data set on RPMI-8226 [27], “Non-Toxic”.

In the case of `CC(C)(C)OC(=O)NN=C1C(Cl)=C(Cl)C(Cl)=C1Cl`, the inhibition entry in data set [21] is “Active”. Moreover, the outcome in the data set with RPMI-8226 [5] was Active. The selectivity ratio at 48 h in data set [6] turned out to be 45.5. Besides, the “mTORC1 activation (active/not active)” value in data set [8] was “inactive”. The outcome in the data set with MM1.S [23] was inactive.

For the compound `ClC1=C(Cl)C(Cl)=C(Cl)C1=NN(c1ccccc1)c1ccccc1`, the IC50 in the data set on MM1.S [1] is greater than 3000 nM.

Take `CC(C)(C)NN=C1C(Cl)=C(Cl)C(Cl)=C1Cl`: the IC50 in [4] is greater than 5 µM; in the data set with MM1.S [1], greater than 3000 nM.

These data come from ChEMBL document CHEMBL4417640, “Inhibitors of mtor-deptor interactions and methods of use thereof” (2018).
